Source: publication PMC9266530 (International Journal of Molecular Sciences, 2022)
Several values for one entry are separate records, joined by “and”; a condition that tells them apart may be missing. Equal entries are not always repeated. Where two headings read alike, the source gives them in different places.

Tests used:
[1] = target: T1, CYP3A4 (Homo sapiens, UniProt P08684); experiment: Stopped-flow kinetics of ligand binding; conditions: for Percentage of the absorbance change taking place during the fast kinetic phase: ligand-binding reaction; for kfast: rate constant for the fast kinetic phase of the ligand-binding reaction
T1 construct: The full-length protein was used for assays and the truncated form was used for crystallization; made in house
Method: Kinetics of Ligand Binding—The kinetics of ligand binding to CYP3A4 were measured at 427 nm in an SX.18MV stopped-flow apparatus (Applied Photophysics, UK), as previously described.
Target sequence in this assay (P08684 whole entry, the tested form may be a part): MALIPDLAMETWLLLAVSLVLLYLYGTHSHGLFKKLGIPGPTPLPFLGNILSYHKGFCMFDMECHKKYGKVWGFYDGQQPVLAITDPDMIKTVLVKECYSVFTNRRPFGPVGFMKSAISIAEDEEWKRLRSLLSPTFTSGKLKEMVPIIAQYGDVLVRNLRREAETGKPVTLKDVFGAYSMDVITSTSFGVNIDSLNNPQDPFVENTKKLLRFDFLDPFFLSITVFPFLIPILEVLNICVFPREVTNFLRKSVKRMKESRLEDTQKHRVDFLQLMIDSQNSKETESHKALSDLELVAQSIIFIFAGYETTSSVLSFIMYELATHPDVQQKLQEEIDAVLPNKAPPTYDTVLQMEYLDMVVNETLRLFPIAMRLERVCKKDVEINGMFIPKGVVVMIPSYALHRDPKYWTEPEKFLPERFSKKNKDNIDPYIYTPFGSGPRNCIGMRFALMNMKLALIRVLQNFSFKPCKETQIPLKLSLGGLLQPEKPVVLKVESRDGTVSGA

[2] = target: T1, CYP3A4; conditions: previously reported analogues; cited from earlier work
Target sequence in this assay (P08684 whole entry, the tested form may be a part): as above

[3] = target: T1, CYP3A4; conditions: BFC debenzylation activity, same method as in this study; previously reported analogues; cited from earlier work
Target sequence in this assay (P08684 2-503): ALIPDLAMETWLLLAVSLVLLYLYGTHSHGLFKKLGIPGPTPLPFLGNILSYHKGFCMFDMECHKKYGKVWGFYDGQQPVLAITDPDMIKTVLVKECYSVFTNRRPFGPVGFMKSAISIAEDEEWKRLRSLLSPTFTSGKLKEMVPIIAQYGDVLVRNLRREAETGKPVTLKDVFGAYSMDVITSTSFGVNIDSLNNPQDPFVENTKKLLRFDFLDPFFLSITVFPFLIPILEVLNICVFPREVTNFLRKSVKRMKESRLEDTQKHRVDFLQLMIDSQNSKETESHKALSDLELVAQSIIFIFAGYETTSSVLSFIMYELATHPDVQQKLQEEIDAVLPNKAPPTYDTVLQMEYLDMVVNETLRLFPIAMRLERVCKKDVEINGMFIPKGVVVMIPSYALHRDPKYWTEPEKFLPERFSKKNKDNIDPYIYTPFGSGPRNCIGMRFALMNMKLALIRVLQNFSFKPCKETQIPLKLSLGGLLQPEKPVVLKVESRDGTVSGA

[4] = target: T1, CYP3A4; experiment: H2O2-dependent heme depletion (heme bleaching) assay; conditions: for Heme Destroyed: 10 mM H2O2, 2 h, relative to ligand-free CYP3A4 = 100%; for kH2O2: rate constant for the H2O2-dependent heme-bleaching reaction, 10 mM H2O2, 16 μM inhibitor
Method: H2O2-dependent heme depletion assay—Heme bleaching in ligand-free and inhibitor-bound CYP3A4 (1.6 μM) was monitored at 23 °C in 0.1 M phosphate buffer, pH 7.4. After 10 min of preincubation of CYP3A4 with 16 μM inhibitors, heme decay was initiated by the addition of 10 mM H2O2 (final concentration) and monitored at 420 nm for 2 h. The percentage of heme destroyed was calculated relative to that in ligand-free CYP3A4, considered as 100% decay.
Target sequence in this assay (P08684 whole entry, the tested form may be a part): as the sequence (P08684 whole entry, the tested form may be a part) above

[5] = target: T1, CYP3A4; experiment: Spectral binding titrations (equilibrium ligand binding, type II spectral change); conditions: for Kd: 23 °C, 0.1 M phosphate pH 7.4, quadratic fits to titration plots, read-out: Ks (spectral dissociation constant); for λmax Ferric: ferric ligand-bound CYP3A4; for ΔAmax: maximal absorbance change (peak-to-trough in difference spectrum) relative to that induced by ritonavir; for A421/417: ratio between absorption maxima of ferric ligand-bound and ligand-free CYP3A4; for λmax Ferrous: ferrous ligand-bound CYP3A4
Method: Spectral Binding Titrations—Equilibrium ligand binding to CYP3A4 was monitored using a Cary 300 spectrophotometer at 23 °C in 0.1 M phosphate buffer, pH 7.4, supplemented with 20% glycerol and 1 mM dithiothreitol. Inhibitors were dissolved in dimethyl sulfoxide (DMSO) and added to a 2 μM protein solution in small aliquots, with the final solvent concentration of <2%. The spectral dissociation constant (Ks) was determined from quadratic fits to the titration plots.
Target sequence in this assay (P08684 whole entry, the tested form may be a part): as above

[6] = target: T1, CYP3A4; experiment: Inhibitory potency for the BFC O-debenzylase activity in a soluble reconstituted system; format: biochemical; conditions: for IC50: BFC debenzylase activity, soluble reconstituted system with cytochrome P450 reductase
Method: Inhibitory Potency Assays—The inhibitory potency for the BFC O-debenzylase activity of CYP3A4 was evaluated fluorometrically in a soluble reconstituted system, and the IC50 values were derived from the [% activity] vs. [inhibitor] plots, as described in detail elsewhere.
Target sequence in this assay (P08684 2-503): as the sequence (P08684 2-503) above

[7] = target: T1, CYP3A4; experiment: Thermal denaturation (ligand-dependent change in melting temperature); format: binding; conditions: purified CYP3A4 protein solution, pH 7.4, ligand-dependent change in melting temperature of CYP3A4, 1 μM protein, 20 μM ligand
Method: Thermal Denaturation—Melting curves were recorded in 0.1 M phosphate buffer, pH 7.4, using a Cary 300 spectrophotometer. Protein (1 μM) was mixed with a ligand (20 μM) and incubated for 15 min at 23 °C. Protein denaturation was monitored at 260 nm using a 0.2 °C measurement step, 0.9 °C/min ramp rate, and 50–75 °C temperature range. The denaturation midpoint (melting temperature; Tm) was determined from non-linear fittings to the melting curve, as described earlier.
Target sequence in this assay (P08684 whole entry, the tested form may be a part): as the sequence (P08684 whole entry, the tested form may be a part) above

[8] = target: T1, CYP3A4; conditions: previously reported analogues; read-out: Ks; cited from earlier work
Target sequence in this assay (P08684 whole entry, the tested form may be a part): as above

[9] = target: recombinant CYP3A5 (Homo sapiens, UniProt P20815); experiment: Inhibitory potency against recombinant CYP3A5; format: biochemical; conditions: read-out: IC50 estimates
recombinant CYP3A5, sequence (P20815 whole entry): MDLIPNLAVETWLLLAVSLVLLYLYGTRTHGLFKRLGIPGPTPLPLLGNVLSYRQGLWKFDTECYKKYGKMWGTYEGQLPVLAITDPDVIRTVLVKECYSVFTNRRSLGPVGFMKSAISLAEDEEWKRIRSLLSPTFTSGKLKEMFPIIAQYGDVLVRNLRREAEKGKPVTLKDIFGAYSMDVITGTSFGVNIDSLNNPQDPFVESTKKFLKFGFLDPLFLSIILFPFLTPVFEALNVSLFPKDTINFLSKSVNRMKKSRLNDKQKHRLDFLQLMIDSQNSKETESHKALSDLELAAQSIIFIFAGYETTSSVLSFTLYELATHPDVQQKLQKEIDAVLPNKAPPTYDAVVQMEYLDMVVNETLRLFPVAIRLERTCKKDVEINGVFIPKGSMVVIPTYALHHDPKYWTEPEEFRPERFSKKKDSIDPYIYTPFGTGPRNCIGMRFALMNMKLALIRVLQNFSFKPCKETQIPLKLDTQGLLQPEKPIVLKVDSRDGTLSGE
From the text: Thus, one optimization strategy would be the R3 enlargement and branching. […] Our analogues lack the backbone hydroxyl as well, but contain much smaller/chemically simpler end-groups.

CC(C)(C)OC(=O)N[C@H](CS[C@H](Cc1ccccc1)C(=O)NCCCc1cccnc1)Cc1ccccc1 [Compound 3a, reference compound]
Percentage of the absorbance change taking place during the fast kinetic phase [1]: 36% | kfast [1]: 12.5 ± 1.3 s⁻¹ | ΔTm [2]: 8.1 °C | IC50 [3]: 160 nM | Heme Destroyed [4]: 18% and 18 ± 2% | kH2O2 [4]: 0.21 ± 0.03 10^3 × min^−1

CC(C)(C)OC(=O)N[C@H](CS[C@H](Cc1ccccc1)C(=O)NCC(=O)Nc1cccnc1)Cc1ccccc1 [Compound 4]
Percentage of the absorbance change taking place during the fast kinetic phase [1]: 27% | kfast [1]: 13.8 s⁻¹ and 13.8 ± 1.5 s⁻¹ | Kd ([5]; 2 μM protein): 1360 ± 120 nM | λmax Ferric [5]: 421 nm | ΔAmax [5]: 98% | A421/417 [5]: 0.99 | fold increase in Ks relative to 3a ([5]; relative to 3a): 100 fold | fold increase in IC50 relative to 3a ([6]; BFC O-debenzylase activity, relative to 3a): 10 fold | IC50 [6]: 1600 ± 200 nM | ΔTm at 15 min, 20 μM [7]: 1.9 °C | Heme Destroyed [4]: 44 ± 5% | kH2O2 [4]: 0.70 ± 0.08 10^3 × min^−1

CC(C)(C)OC(=O)N[C@H](CS[C@H](Cc1ccccc1)C(=O)NCc1cccnc1)Cc1ccccc1 [Compound 4b, reference compound]
Percentage of the absorbance change taking place during the fast kinetic phase [1]: 31% | kfast [1]: 13.2 ± 1.8 s⁻¹ | IC50 [3]: 1190 nM | Heme Destroyed [4]: 39 ± 5% | kH2O2 [4]: 0.64 ± 0.07 10^3 × min^−1 | Kd [8]: 63 nM

CC(C)(C)OC(=O)N[C@H](CS[C@H](Cc1ccccc1)C(=O)NCCc1cccnc1)Cc1ccccc1 [Compound 4f, reference compound]
Percentage of the absorbance change taking place during the fast kinetic phase [1]: 32% | kfast [1]: 11.4 ± 1.4 s⁻¹ | ΔTm [2]: 4.2 °C | Heme Destroyed [4]: 37% and 37 ± 4% | kH2O2 [4]: 0.60 ± 0.08 10^3 × min^−1

CC(C)(C)OC(=O)N[C@H](CS[C@@H](Cc1ccccc1)C(=O)NCCc1cccnc1)Cc1ccccc1 [Compound 4h, reference compound]
Percentage of the absorbance change taking place during the fast kinetic phase [1]: 28% | kfast [1]: 13.8 ± 2.0 s⁻¹ | Heme Destroyed [4]: 22 ± 3% | kH2O2 [4]: 0.32 ± 0.03 10^3 × min^−1

CC(C)(C)OC(=O)N[C@H](CS[C@H](Cc1ccccc1)C(=O)NCc1ccncc1)Cc1ccccc1 [Compound 5a]
Percentage of the absorbance change taking place during the fast kinetic phase [1]: 34% | kfast [1]: 22.5 ± 3.1 s⁻¹ | Kd ([5]; 2 μM protein): 34 ± 5 nM | λmax Ferric [5]: 422 nm | λmax Ferrous [5]: 443 nm | ΔAmax [5]: 105% | A421/417 [5]: 1.07 | fold improvement in binding affinity relative to 4f ([5]; relative to 4f): 2.2 fold | IC50 [6]: 310 ± 30 nM | fold improvement in inhibitory potency relative to 4f ([6]; relative to 4f): 1.3 fold | ΔTm at 15 min, 20 μM [7]: 5.2 °C | Heme Destroyed [4]: 22% and 22 ± 3% | kH2O2 [4]: 0.31 ± 0.04 10^3 × min^−1

CC(C)(C)OC(=O)N[C@H](CS[C@H](Cc1ccccc1)C(=O)NCCc1ccncc1)Cc1ccccc1 [Compound 5b]
Percentage of the absorbance change taking place during the fast kinetic phase [1]: 31% | kfast [1]: 18.2 ± 1.8 s⁻¹ | Kd ([5]; 2 μM protein): 14 ± 2 nM | λmax Ferric [5]: 423 nm | λmax Ferrous [5]: 443 nm | ΔAmax [5]: 126% | A421/417 [5]: 1.06 | IC50 [9]: 180 to 200 nM | IC50 [6]: 160 ± 20 nM | ΔTm at 15 min, 20 μM [7]: 5 °C | Heme Destroyed [4]: 22% and 22 ± 2% | kH2O2 [4]: 0.31 ± 0.03 10^3 × min^−1

O=C(Cc1cccnc1)N[C@H](CS[C@H](Cc1ccccc1)C(=O)NCc1cccnc1)Cc1ccccc1 [Compound 8a]
Percentage of the absorbance change taking place during the fast kinetic phase [1]: 26% | kfast [1]: 10.3 s⁻¹ and 10.3 ± 1.2 s⁻¹ | Kd ([5]; 2 μM protein): 120 ± 10 nM | λmax Ferric [5]: 421 nm | λmax Ferrous [5]: 443 nm | ΔAmax [5]: 96% | A421/417 [5]: 1.03 | IC50 [6]: 600 ± 40 nM | ΔTm at 15 min, 20 μM [7]: 3.6 °C | Heme Destroyed [4]: 39 ± 4% | kH2O2 [4]: 0.66 ± 0.10 10^3 × min^−1

O=C(CCc1cccnc1)N[C@H](CS[C@H](Cc1ccccc1)C(=O)NCCc1cccnc1)Cc1ccccc1 [Compound 8b]
Percentage of the absorbance change taking place during the fast kinetic phase [1]: 24% | kfast [1]: 5.6 s⁻¹ and 5.6 ± 0.6 s⁻¹ | Kd ([5]; 2 μM protein): 53 ± 9 nM | λmax Ferric [5]: 421 nm | λmax Ferrous [5]: 443 nm | ΔAmax [5]: 109% | A421/417 [5]: 1.03 | increase in Ks relative to 4f ([5]; relative to 4f): ~ 20% | IC50 [6]: 820 ± 90 nM | increase in IC50 relative to 4f ([6]; relative to 4f): ~ 20% | ΔTm at 15 min, 20 μM [7]: 4.2 °C | Heme Destroyed [4]: 32 ± 3% | kH2O2 [4]: 0.44 ± 0.06 10^3 × min^−1

O=C(CCc1cccnc1)N[C@H](CS[C@@H](Cc1ccccc1)C(=O)NCCc1cccnc1)Cc1ccccc1 [Compound 8c]
IC50 [9]: 180 to 200 nM | IC50 [6]: 210 ± 30 nM | Heme Destroyed [4]: 24 ± 2% | kH2O2 [4]: 0.32 ± 0.03 10^3 × min^−1

O=C(N[C@H](CS[C@H](Cc1ccccc1)C(=O)NCCCc1cccnc1)Cc1ccccc1)c1cccnc1 [Compound 10a]
Percentage of the absorbance change taking place during the fast kinetic phase [1]: 30% | kfast [1]: 15.4 ± 1.8 s⁻¹ | Kd ([5]; 2 μM protein): 8 ± 1 nM | λmax Ferric [5]: 422 nm | λmax Ferrous [5]: 444 nm | ΔAmax [5]: 111% | A421/417 [5]: 1.11 | IC50 [9]: 180 to 200 nM | IC50 [6]: 150 ± 20 nM | ΔTm at 15 min, 20 μM [7]: 7.2 °C | Heme Destroyed [4]: 13 ± 2% | kH2O2 [4]: 0.17 ± 0.02 10^3 × min^−1 | improvement in heme protection relative to 3a ([4]; relative to the Boc-containing 3a): 5%

O=C(CNC(=O)c1cccnc1)N[C@H](CS[C@H](Cc1ccccc1)C(=O)NCCCc1cccnc1)Cc1ccccc1 [Compound 10b]
Percentage of the absorbance change taking place during the fast kinetic phase [1]: 29% | kfast [1]: 13.7 ± 1.5 s⁻¹ | Kd ([5]; 2 μM protein): 9 ± 1 nM | λmax Ferric [5]: 422 nm | λmax Ferrous [5]: 443 nm | Kd ([5]; human, purified CYP3A4 protein solution, pH 7.4, 2 μM protein): 8 to 9 nM | ΔAmax [5]: 110% | A421/417 [5]: 1.10 | IC50 ([6]; human, probe BFC (O-debenzylation)): 210 ± 20 nM | ΔTm at 15 min, 20 μM [7]: 7.3 °C | Heme Destroyed [4]: 19 ± 3% | kH2O2 [4]: 0.24 ± 0.03 10^3 × min^−1
